Experimental findings from ChEMBL document CHEMBL4699433, “Rational design, synthesis and testing of novel tricyclic topoisomerase inhibitors for the treatment of bacterial infections part 2” (RSC Med Chem, 2020) are described below.

One data set has as its system Streptococcus pneumoniae. The data set is described as follows: Antibacterial activity against Streptococcus pneumoniae ATCC 49619 assessed as reduction in bacterial growth by CLSI based broth microdilution method. Format: functional. (Dilution methods test growth across graded concentrations, often in twofold steps.)
For another data set, the system named is Haemophilus influenzae. The data set is described as follows: Antibacterial activity against Haemophilus influenzae ATCC 49247 assessed as reduction in bacterial growth by CLSI based broth microdilution method. The format is functional.
A short description of data set [1]: Thermodynamic solubility of the compound. The note with it: read-out: Therm_solubility. Format: physicochemical.
A further data set relates to Staphylococcus aureus. Put plainly: Antibacterial activity against wild type methicillin-sensitive Staphylococcus aureus ATCC 29213 assessed as reduction in bacterial growth by CLSI based broth microdilution method. The format is functional.
The next data set deals with Escherichia coli. Put plainly: Antibacterial activity against Escherichia coli ATCC 25922 assessed as reduction in bacterial growth by CLSI based broth microdilution method. Format: functional.

Converted amounts (≈) assume the structure as drawn.

Consider `Cc1nc2c(=O)n(C3CC3)c3c(Cl)c(N4CC[C@H](CN)C4)c(F)cc3c2o1`, for which the MIC in the data set on Streptococcus pneumoniae came out at 0.12 mg/L (≈ 0.307 µM); in the data set with Haemophilus influenzae it was 1 mg/L (≈ 2.56 µM); with Staphylococcus aureus, 0.12 mg/L (≈ 0.307 µM); in the data set on Escherichia coli it was 0.5 mg/L (≈ 1.28 µM). In data set [1], the solubility thermodynamic came out at 0.601 mg/mL (≈ 1540 µM).
Turning to `Cc1nc2c(=O)n(C3CC3)c3c(Cl)c(N4CCC(N(C)C)C4)c(F)cc3c2o1` (configuration not stated), the MIC was 4 mg/L (≈ 9.88 µM) with Streptococcus pneumoniae, 8 mg/L (≈ 19.8 µM) in the data set with Haemophilus influenzae, 4 mg/L (≈ 9.88 µM) with Staphylococcus aureus and 4 mg/L (≈ 9.88 µM) with Escherichia coli.
`Cc1nc2c(=O)n(C3CC3)c3c(Cl)c(N4CC[C@@H](CN)C4)c(F)cc3c2o1`: the MIC is 0.12 mg/L (≈ 0.307 µM) with Streptococcus pneumoniae, 0.12 mg/L (≈ 0.307 µM) in the data set on Staphylococcus aureus and 1 mg/L (≈ 2.56 µM) in the data set on Escherichia coli. Moreover, in data set [1], the solubility thermodynamic was 0.95 mg/mL (≈ 2430 µM).
Consider `Cc1nc2c(=O)n(C3CC3)c3cc(N4CCC(N)CC4)c(F)cc3c2o1`, for which the MIC in the data set with Streptococcus pneumoniae was 1 mg/L (≈ 2.81 µM); with Haemophilus influenzae, 1 mg/L (≈ 2.81 µM); with Staphylococcus aureus it was 1 mg/L (≈ 2.81 µM); in the data set on Escherichia coli it was 2 mg/L (≈ 5.61 µM). Moreover, the solubility thermodynamic in data set [1] was determined as 1.4 mg/mL (≈ 3940 µM).
Regarding `Cc1nc2c(=O)n(C3CC3)c3cc(N4CC[C@H](CN)C4)c(F)cc3c2o1`, the MIC came to 0.5 mg/L (≈ 1.4 µM) in the data set on Streptococcus pneumoniae, 8 mg/L (≈ 22.4 µM) in the data set on Haemophilus influenzae, 1 mg/L (≈ 2.81 µM) in the data set on Staphylococcus aureus and 2 mg/L (≈ 5.61 µM) in the data set with Escherichia coli. Moreover, the solubility thermodynamic in data set [1] came to 1.4 mg/mL (≈ 3940 µM).
For `Cc1nc2c(=O)n(C3CC3)c3c(Cl)c(N4C[C@@H](C)N[C@@H](C)C4)c(F)cc3c2o1` the same measures were 16 mg/L (≈ 39.5 µM), 8 mg/L (≈ 19.8 µM), 8 mg/L (≈ 19.8 µM), 4 mg/L (≈ 9.88 µM) and 0.543 mg/mL (≈ 1340 µM).
In the case of `Cc1nc2c(=O)n(C3CC3)c3cc(N4CCC(CN)C4)c(F)cc3c2o1` (configuration not stated), the MIC in the data set on Streptococcus pneumoniae stood at 0.5 mg/L (≈ 1.4 µM); in the data set with Haemophilus influenzae, 8 mg/L (≈ 22.4 µM); in the data set on Staphylococcus aureus, 0.5 mg/L (≈ 1.4 µM); with Escherichia coli, 2 mg/L (≈ 5.61 µM).
Take `Cc1nc2c(=O)n(C3CC3)c3cc(N4CCC(C(C)N)C4)c(F)cc3c2o1` (configuration not stated): the MIC came to 1 mg/L (≈ 2.7 µM) in the data set with Streptococcus pneumoniae, 4 mg/L (≈ 10.8 µM) with Haemophilus influenzae, 1 mg/L (≈ 2.7 µM) with Staphylococcus aureus and 4 mg/L (≈ 10.8 µM) in the data set with Escherichia coli. Moreover, in data set [1], the solubility thermodynamic amounted to 1.35 mg/mL (≈ 3640 µM).
Take `CNC[C@H]1CCN(c2c(F)cc3c4oc(C)nc4c(=O)n(C4CC4)c3c2Cl)C1`: the MIC with Streptococcus pneumoniae was found to be 0.25 mg/L (≈ 0.617 µM); with Haemophilus influenzae it was 1 mg/L (≈ 2.47 µM); in the data set on Staphylococcus aureus, 0.25 mg/L (≈ 0.617 µM); in the data set with Escherichia coli, 2 mg/L (≈ 4.94 µM).
On to `Cc1nc2c(=O)n(C3CC3)c3cc(N4CC[C@@H](C(C)(C)N)C4)c(F)cc3c2o1`, for which the MIC in the data set on Streptococcus pneumoniae worked out at 2 mg/L (≈ 5.2 µM); in the data set on Haemophilus influenzae, 16 mg/L (≈ 41.6 µM); in the data set with Staphylococcus aureus it was 2 mg/L (≈ 5.2 µM); with Escherichia coli, 8 mg/L (≈ 20.8 µM). Also, in data set [1], the solubility thermodynamic came to 1.35 mg/mL (≈ 3520 µM).
In the case of `Cc1nc2c(=O)n(C3CC3)c3c(Cl)c(N4CC5CCCNC5C4)c(F)cc3c2o1` (configuration not stated), the MIC was 4 mg/L (≈ 9.59 µM) in the data set with Streptococcus pneumoniae, 8 mg/L (≈ 19.2 µM) in the data set on Haemophilus influenzae, 2 mg/L (≈ 4.8 µM) in the data set on Staphylococcus aureus and 2 mg/L (≈ 4.8 µM) in the data set on Escherichia coli. For the same compound, the solubility thermodynamic in data set [1] was 1.06 mg/mL (≈ 2550 µM).
`Cc1nc2c(=O)n(C3CC3)c3cc(N4CCC(O)C4)c(F)cc3c2o1` (configuration not stated): the MIC in the data set on Streptococcus pneumoniae is 64 mg/L (≈ 186 µM); in the data set with Haemophilus influenzae it was 4 mg/L (≈ 11.6 µM); with Staphylococcus aureus it was 32 mg/L (≈ 93.2 µM); in the data set with Escherichia coli, 64 mg/L (≈ 186 µM).
With `Cc1nc2c(=O)n(C3CC3)c3cc(N4CC5CNCC5C4)c(F)cc3c2o1` (configuration not stated), the MIC amounted to 4 mg/L (≈ 10.9 µM) in the data set on Streptococcus pneumoniae, 2 mg/L (≈ 5.43 µM) in the data set with Haemophilus influenzae, 2 mg/L (≈ 5.43 µM) with Staphylococcus aureus and 4 mg/L (≈ 10.9 µM) in the data set on Escherichia coli. For the same compound, the solubility thermodynamic in data set [1] was found to be 1.2 mg/mL (≈ 3240 µM).
Consider `Cc1nc2c(=O)n(C3CC3)c3cc(N4CCC(N)C4)c(F)cc3c2o1` (configuration not stated), for which the MIC with Streptococcus pneumoniae was found to be 8 mg/L (≈ 23.4 µM); in the data set with Haemophilus influenzae, 1 mg/L (≈ 2.92 µM); in the data set on Staphylococcus aureus it was 2 mg/L (≈ 5.84 µM); in the data set with Escherichia coli, 1 mg/L (≈ 2.92 µM).
As to `Cc1nc2c(=O)n(C3CC3)c3c(Cl)c(N4CCC(CN(C)C)C4)c(F)cc3c2o1` (configuration not stated), the MIC in the data set with Streptococcus pneumoniae is 2 mg/L (≈ 4.77 µM); with Haemophilus influenzae, 16 mg/L (≈ 38.2 µM); with Staphylococcus aureus it was 1 mg/L (≈ 2.39 µM); in the data set with Escherichia coli, 4 mg/L (≈ 9.55 µM). The solubility thermodynamic in data set [1] amounted to 1.19 mg/mL (≈ 2850 µM).
For `Cc1nc2c(=O)n3c4c(c(N5CCC(CN)C5)c(F)cc4c2o1)OC[C@H]3C` (some centres not stated), the MIC with Streptococcus pneumoniae is 128 mg/L (≈ 344 µM); in the data set on Haemophilus influenzae, 128 mg/L (≈ 344 µM); in the data set with Staphylococcus aureus, 64 mg/L (≈ 172 µM); in the data set on Escherichia coli it was 64 mg/L (≈ 172 µM).
Turning to `CNCC1CCN(c2c(F)cc3c4oc(C)nc4c(=O)n(C4CC4)c3c2Cl)C1` (configuration not stated), the MIC in the data set on Streptococcus pneumoniae amounted to 0.25 mg/L (≈ 0.617 µM); in the data set on Haemophilus influenzae, 1 mg/L (≈ 2.47 µM); in the data set on Staphylococcus aureus, 0.25 mg/L (≈ 0.617 µM); in the data set on Escherichia coli, 1 mg/L (≈ 2.47 µM). Also, the solubility thermodynamic in data set [1] is 1.18 mg/mL (≈ 2920 µM).
For the compound `Cc1nc2c(=O)n(C3CC3)c3c(Cl)c(N4CCNCC4)c(F)cc3c2o1`, the MIC amounted to 4 mg/L (≈ 10.6 µM) with Streptococcus pneumoniae, 0.5 mg/L (≈ 1.33 µM) in the data set on Haemophilus influenzae, 0.25 mg/L (≈ 0.663 µM) with Staphylococcus aureus and 0.5 mg/L (≈ 1.33 µM) in the data set on Escherichia coli. Besides, the solubility thermodynamic in data set [1] was found to be 0.885 mg/mL (≈ 2350 µM).
With `Cc1nc2c(=O)n3c4c(c(N5CCC(CN)C5)c(F)cc4c2o1)OC[C@@H]3C` (some centres not stated), the MIC came out at 0.5 mg/L (≈ 1.34 µM) with Streptococcus pneumoniae, 4 mg/L (≈ 10.7 µM) with Haemophilus influenzae, 0.5 mg/L (≈ 1.34 µM) in the data set with Staphylococcus aureus and 2 mg/L (≈ 5.37 µM) in the data set on Escherichia coli.
For the compound `Cc1nc2c(=O)n(C3CC3)c3c(Cl)c(N4CCC(N)CC4)c(F)cc3c2o1`, the MIC in the data set on Streptococcus pneumoniae was determined as 0.5 mg/L (≈ 1.28 µM); in the data set on Haemophilus influenzae, 1 mg/L (≈ 2.56 µM); in the data set with Staphylococcus aureus, 0.25 mg/L (≈ 0.64 µM); in the data set with Escherichia coli, 0.5 mg/L (≈ 1.28 µM). In data set [1], the solubility thermodynamic is 0.922 mg/mL (≈ 2360 µM).
